How the values were obtained:
[1] = target: T1, Thyroid hormone receptor alpha (Homo sapiens, UniProt P10827); experiment: Competition Binding Assay
T1 sequence (P10827 whole entry): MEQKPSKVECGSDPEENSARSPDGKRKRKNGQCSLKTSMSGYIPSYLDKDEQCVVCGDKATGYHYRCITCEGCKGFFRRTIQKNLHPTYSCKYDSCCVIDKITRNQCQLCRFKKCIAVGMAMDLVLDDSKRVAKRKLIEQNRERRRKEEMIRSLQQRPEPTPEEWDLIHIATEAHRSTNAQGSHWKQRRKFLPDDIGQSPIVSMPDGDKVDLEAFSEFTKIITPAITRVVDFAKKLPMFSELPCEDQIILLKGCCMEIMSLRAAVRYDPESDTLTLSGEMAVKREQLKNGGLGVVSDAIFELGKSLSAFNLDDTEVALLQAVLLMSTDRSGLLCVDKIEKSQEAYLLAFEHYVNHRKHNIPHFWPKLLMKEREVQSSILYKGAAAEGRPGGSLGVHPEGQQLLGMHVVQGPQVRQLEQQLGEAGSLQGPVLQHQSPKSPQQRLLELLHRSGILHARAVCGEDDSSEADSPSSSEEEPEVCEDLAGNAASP
Text: (§1) Thyroid hormone competitive binding assay using TNT T7 quick-coupled transcription translation system from promega.

[2] = target: T2, Thyroid hormone receptor beta (Homo sapiens, UniProt P10828); experiment: Competition Binding Assay
T2 sequence (P10828 whole entry): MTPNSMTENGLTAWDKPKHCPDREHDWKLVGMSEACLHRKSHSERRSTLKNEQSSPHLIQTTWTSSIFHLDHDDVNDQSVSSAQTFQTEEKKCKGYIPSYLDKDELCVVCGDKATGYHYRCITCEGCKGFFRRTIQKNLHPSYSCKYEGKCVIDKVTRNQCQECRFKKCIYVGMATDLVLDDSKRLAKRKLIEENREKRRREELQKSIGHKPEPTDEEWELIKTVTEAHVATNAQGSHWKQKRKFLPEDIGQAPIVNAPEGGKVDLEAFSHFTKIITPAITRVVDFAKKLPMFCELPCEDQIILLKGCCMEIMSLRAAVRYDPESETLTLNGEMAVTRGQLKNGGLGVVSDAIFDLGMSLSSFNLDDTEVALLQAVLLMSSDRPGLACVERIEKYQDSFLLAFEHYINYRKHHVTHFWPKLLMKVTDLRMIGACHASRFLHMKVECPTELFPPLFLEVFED
Text: as §1

[3] = target: T1, Thyroid hormone receptor alpha; experiment: Transactivation Assay in U2OS cells
Text: TRE-driven dual-luciferase reporter assay in human bone osteosarcoma epithelial (U2OS) cell line.

| Structure (SMILES) | Kd [1] [nM] | Kd [2] [nM] | EC50 [3] [nM] |
| --- | --- | --- | --- |
| Cc1cc(Cc2[nH]c(=O)[nH]c2O)cc(C)c1Oc1ccc(O)c(C(C)C)c1 [CO22] | 286 | 280 | 3870 |
| CC(C)c1cc(Oc2c(I)cc(Cc3[nH]c(=O)[nH]c3O)cc2I)ccc1O | 1.2 | 1.7 | 34 |
